Laboratory results taken from US20200165291A1, “NEUROACTIVE STEROIDS, COMPOSITIONS, AND USES THEREOF” (Sage Therapeutics, Inc., priority 2014, published 2020).
Where two headings read alike, the source gives them in different places.

How the values were obtained:
[1] = target: T1, recombinant α4β3δ GABAA receptors (Homo sapiens, UniProt P28472+P48169); test: Patch clamp electrophysiology, manual patch, CHO cells; format: cell-based; conditions: 10 μM test article, GABA EC20 = 2 μM, read-out: GABA (α4β3δ) Manual patch in CHO, % efficacy at 10 μM
T1 construct: expressed in transfected cells; host or cells: CHO cells (transient transfection, Lipofectamine)

[2] = target: T2, recombinant α1β2γ2 GABAA receptors (Homo sapiens, UniProt P14867+P47870); test: Patch clamp electrophysiology, QPatch, LTK cells; format: cell-based; conditions: 10 μM test article, GABA EC20 = 2 μM, read-out: GABA (α1β2γ2) Qpatch in Ltk, % efficacy at 10 μM
T2 construct: expressed in transfected cells

[3] = target: [35S]-TBPS binding, rat brain cortical membranes (GABA receptor complex); test: [35S]-TBPS binding (steroid inhibition of TBPS binding); conditions: in the presence of 5 μM GABA, read-out: 35S-TBPS Radioligand Displacement
Method: [35S]-t-Butylbicyclophosphorothionate (TBPS) binding assays using rat brain cortical membranes in the presence of 5 μM GABA has been described (Gee et al, J. Pharmacol. Exp. Ther. 1987, 241, 346-353; Hawkinson et al, Mol. Pharmacol. 1994, 46, 977-985; Lewin, A. H et al., Mol. Pharmacol. 1989, 35, 189-194).
Briefly, cortices are rapidly removed following decapitation of carbon dioxide-anesthetized Sprague-Dawley rats (200-250 g). The cortices are homogenized in 10 volumes of ice-cold 0.32 M sucrose using a glass/teflon homogenizer and centrifuged at 1500×g for 10 min at 4° C. The resultant supernatants are centrifuged at 10,000×g for 20 min at 4° C. to obtain the P2 pellets. The P2 pellets are resuspended in 200 mM NaCl/50 mM Na-K phosphate pH 7.4 buffer and centrifuged at 10,000×g for 10 min at 4° C. This washing procedure is repeated twice and the pellets are resuspended in 10 volumes of buffer. Aliquots (100 μL) of the membrane suspensions are incubated with 3 nM [^35S]-TBPS and 5 μL aliquots of test drug dissolved in dimethyl sulfoxide (DMSO) (final 0.5%) in the presence of 5 μM GABA. The incubation is brought to a final volume of 1.0 mL with buffer. Nonspecific binding is determined in the presence of 2 μM unlabeled TBPS and ranged from 15 to 25%. Following a 90 min incubation at room temp, the assays are terminated by filtration through glass fiber filters (Schleicher and Schuell No. 32) using a cell harvester (Brandel) and rinsed three times with ice-cold buffer. Filter bound radioactivity is measured by liquid scintillation spectrometry. Non-linear curve fitting of the overall data for each drug averaged for each concentration is done using Prism (GraphPad). […] The concentration of test compound producing 50% inhibition (IC50) of specific binding and the maximal extent of inhibition (Imax) are determined for the individual experiments with the same model used for the overall data and then the means±SEM.s of the individual experiments are calculated.
Various compounds are or can be screened to determine their potential as modulators of [^35S]-TBPS binding in vitro. These assays are or can be performed in accordance with the above discussed procedures.

T2 sequence (P14867 28-456): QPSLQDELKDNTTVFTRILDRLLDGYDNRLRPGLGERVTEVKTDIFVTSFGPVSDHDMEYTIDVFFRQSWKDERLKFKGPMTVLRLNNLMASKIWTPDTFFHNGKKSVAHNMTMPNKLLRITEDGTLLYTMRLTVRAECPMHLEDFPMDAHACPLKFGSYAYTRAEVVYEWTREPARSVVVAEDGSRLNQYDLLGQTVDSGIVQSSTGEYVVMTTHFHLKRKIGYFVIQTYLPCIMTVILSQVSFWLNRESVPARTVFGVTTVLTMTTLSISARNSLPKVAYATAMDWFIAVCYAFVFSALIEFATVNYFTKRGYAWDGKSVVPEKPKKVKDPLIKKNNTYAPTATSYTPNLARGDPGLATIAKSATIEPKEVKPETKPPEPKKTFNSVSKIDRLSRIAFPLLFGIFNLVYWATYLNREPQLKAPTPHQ
T2 sequence (P47870 25-512 limits assumed): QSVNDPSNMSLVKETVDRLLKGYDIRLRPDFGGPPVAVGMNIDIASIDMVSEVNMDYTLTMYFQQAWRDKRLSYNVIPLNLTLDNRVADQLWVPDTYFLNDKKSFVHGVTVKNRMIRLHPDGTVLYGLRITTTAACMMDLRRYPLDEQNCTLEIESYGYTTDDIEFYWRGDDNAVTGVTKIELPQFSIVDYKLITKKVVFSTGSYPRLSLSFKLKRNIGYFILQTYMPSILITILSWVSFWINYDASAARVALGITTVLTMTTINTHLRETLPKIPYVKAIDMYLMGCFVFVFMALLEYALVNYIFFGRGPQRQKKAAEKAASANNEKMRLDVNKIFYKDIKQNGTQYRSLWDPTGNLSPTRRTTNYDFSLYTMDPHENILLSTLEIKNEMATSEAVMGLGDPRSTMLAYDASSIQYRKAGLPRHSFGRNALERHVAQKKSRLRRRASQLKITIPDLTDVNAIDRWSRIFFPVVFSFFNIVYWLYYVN
T2 sequence (P18507 40-475 partner): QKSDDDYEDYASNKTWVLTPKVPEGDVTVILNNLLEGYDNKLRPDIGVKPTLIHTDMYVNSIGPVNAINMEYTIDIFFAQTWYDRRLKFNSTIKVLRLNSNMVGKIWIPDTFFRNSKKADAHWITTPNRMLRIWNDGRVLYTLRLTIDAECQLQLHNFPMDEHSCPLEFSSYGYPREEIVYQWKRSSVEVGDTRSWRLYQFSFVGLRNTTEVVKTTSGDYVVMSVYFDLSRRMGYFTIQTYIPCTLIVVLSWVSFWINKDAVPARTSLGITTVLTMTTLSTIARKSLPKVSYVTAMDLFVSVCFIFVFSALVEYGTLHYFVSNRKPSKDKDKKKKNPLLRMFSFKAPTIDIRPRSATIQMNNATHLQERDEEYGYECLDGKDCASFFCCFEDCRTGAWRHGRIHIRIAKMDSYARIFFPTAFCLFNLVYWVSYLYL
T1 sequence (P48169 36-554): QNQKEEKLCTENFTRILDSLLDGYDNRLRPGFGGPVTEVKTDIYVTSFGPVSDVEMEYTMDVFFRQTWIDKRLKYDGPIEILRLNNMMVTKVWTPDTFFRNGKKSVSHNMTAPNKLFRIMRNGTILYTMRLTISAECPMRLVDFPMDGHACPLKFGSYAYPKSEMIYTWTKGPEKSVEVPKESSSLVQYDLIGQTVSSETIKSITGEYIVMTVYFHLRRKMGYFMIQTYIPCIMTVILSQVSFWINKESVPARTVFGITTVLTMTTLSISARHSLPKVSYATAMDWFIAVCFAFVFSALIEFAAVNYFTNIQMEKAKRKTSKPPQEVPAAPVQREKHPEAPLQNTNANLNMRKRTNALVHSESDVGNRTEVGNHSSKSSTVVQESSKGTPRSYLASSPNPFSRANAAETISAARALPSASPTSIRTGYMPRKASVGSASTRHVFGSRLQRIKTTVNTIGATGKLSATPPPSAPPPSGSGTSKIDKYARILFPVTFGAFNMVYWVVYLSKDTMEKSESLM
T1 sequence (P28472 26-473): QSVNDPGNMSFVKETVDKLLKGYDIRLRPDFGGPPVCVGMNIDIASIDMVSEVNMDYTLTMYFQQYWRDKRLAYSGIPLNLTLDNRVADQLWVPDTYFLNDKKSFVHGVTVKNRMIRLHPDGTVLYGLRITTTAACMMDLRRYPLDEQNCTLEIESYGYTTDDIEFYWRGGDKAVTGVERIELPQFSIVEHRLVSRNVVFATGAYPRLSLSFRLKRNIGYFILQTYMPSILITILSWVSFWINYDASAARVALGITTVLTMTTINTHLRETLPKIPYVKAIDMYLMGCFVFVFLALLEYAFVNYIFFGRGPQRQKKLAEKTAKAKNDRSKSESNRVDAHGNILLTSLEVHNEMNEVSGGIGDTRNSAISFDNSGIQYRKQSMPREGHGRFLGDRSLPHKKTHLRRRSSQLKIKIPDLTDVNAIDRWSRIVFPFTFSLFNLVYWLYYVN
T1 sequence (O14764 17-452 partner limits assumed): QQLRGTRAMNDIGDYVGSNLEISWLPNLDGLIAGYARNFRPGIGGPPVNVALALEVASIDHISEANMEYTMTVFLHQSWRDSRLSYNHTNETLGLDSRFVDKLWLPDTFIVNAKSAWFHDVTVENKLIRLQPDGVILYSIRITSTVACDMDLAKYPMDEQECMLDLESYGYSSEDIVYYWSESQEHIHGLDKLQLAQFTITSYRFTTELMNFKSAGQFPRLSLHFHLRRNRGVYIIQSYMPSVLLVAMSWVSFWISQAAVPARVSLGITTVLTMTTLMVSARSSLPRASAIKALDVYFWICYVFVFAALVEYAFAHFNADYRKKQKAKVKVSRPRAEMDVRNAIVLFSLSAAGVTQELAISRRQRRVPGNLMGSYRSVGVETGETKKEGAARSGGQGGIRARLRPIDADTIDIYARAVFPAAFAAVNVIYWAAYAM

| Compound | Emax at 10 µM [1] [%] | Emax at 10 µM [2] [%] | IC50 [3] [µM] | Emax at 10 µM ([1]; in cremophor) [%] | Emax at 10 µM ([2]; in cremophor) [%] |
| --- | --- | --- | --- | --- | --- |
| Cc1nnnn1CC(=O)[C@H]1CC[C@H]2[C@@H]3C[C@@H](F)[C@H]4C[C@](C)(O)CC[C@@H]4[C@H]3CC[C@]12C [SV-6] | 100 to 500 | 100 to 500 | – | – | – |
| CC[C@@]1(O)CC[C@H]2[C@@H](CC[C@@H]3[C@@H]2CC[C@]2(C)[C@@H](C(=O)Cn4nnnc4C)CC[C@@H]32)C1 [SP-4] | – | 10 to 100 | > 0.5 | – | – |
| C[C@]12CC[C@H]3[C@@H](CC[C@H]4C[C@@](O)(CF)CC[C@@H]43)[C@@H]1CC[C@@H]2C(=O)Cn1cnnn1 [SD-4] | – | 100 to 500 | > 0.5 | – | – |
| CCOC[C@@]1(O)CC[C@H]2[C@@H](CC[C@@H]3[C@@H]2CC[C@]2(C)[C@@H](C(=O)Cn4ccnn4)CC[C@@H]32)C1 [SQ-1] | – | – | > 0.5 | – | – |
| CC[C@@]1(O)CC[C@H]2[C@H](CC[C@@H]3[C@@H]2CC[C@]2(C)[C@@H](C(=O)Cn4ccnn4)CC[C@@H]32)C1 [SE-3] | – | 100 to 500 | 0.1 to 0.5 | – | – |
| C[C@@]1(O)CC[C@@H]2[C@H]3CC[C@]4(C)[C@@H](C(=O)Cn5ccnn5)CC[C@H]4[C@@H]3C[C@@H](F)[C@@H]2C1 [SH-1] | – | – | > 0.5 | – | – |
| C[C@@]1(O)CC[C@H]2[C@H](CC[C@@H]3[C@@H]2CC[C@]2(C)[C@@H](C(=O)Cn4ncc(C(N)=O)n4)CC[C@@H]32)C1 [SA-13] | – | – | – | > 500 | 100 to 500 |
| CO[C@@H]1C[C@@H]2[C@H](CC[C@]3(C)[C@@H](C(=O)Cn4nccn4)CC[C@@H]23)[C@H]2CC[C@@](C)(O)C[C@H]21 [SL-2] | – | 10 to 100 | > 0.5 | – | – |
| CCO[C@H]1C[C@H]2[C@@H](CC[C@@H]3[C@@H]2CC[C@]2(C)[C@@H](C(=O)Cn4ccnn4)CC[C@@H]32)C[C@]1(C)O [SY-1] | – | 100 to 500 | 0.1 to 0.5 | – | – |
| CCOC[C@@]1(O)CC[C@H]2[C@@H](CC[C@@H]3[C@@H]2CC[C@]2(C)[C@@H](C(=O)Cn4nnnc4C)CC[C@@H]32)C1 [SQ-5] | – | – | > 0.5 | – | – |
| CCO[C@H]1C[C@H]2[C@@H](CC[C@@H]3[C@@H]2CC[C@]2(C)[C@@H](C(=O)Cn4nccn4)CC[C@@H]32)C[C@]1(C)O [SY-2] | > 500 | 100 to 500 | 0.1 to 0.5 | – | – |
| Cc1nnnn1CC(=O)[C@H]1CC[C@H]2[C@@H]3CC[C@@H]4C[C@@](O)(CF)CC[C@@H]4[C@H]3CC[C@]12C [SF-2] | > 500 | 100 to 500 | – | – | – |
| C[C@H]1C[C@H]2[C@@H](CC[C@@H]3[C@@H]2CC[C@]2(C)[C@@H](C(=O)Cn4ccnn4)CC[C@@H]32)C[C@]1(C)O [SZ-1] | – | 100 to 500 | 0.05 to 0.1 | – | – |
| C[C@H]1C[C@H]2[C@@H](CC[C@@H]3[C@@H]2CC[C@]2(C)[C@@H](C(=O)Cn4nccn4)CC[C@@H]32)C[C@]1(C)O [SZ-2] | 100 to 500 | 100 to 500 | 0.05 to 0.1 | – | – |
| CC[C@@]1(O)CC[C@H]2[C@H](CC[C@@H]3[C@@H]2CC[C@]2(C)[C@@H](C(=O)Cn4nnc(C)n4)CC[C@@H]32)C1 [SE-6] | – | 10 to 100 | > 0.5 | – | – |
| C[C@]12CC[C@H]3[C@@H](CC[C@@H]4C[C@@](O)(C(F)F)CC[C@@H]43)[C@@H]1CC[C@@H]2C(=O)Cn1ccnn1 [SG-5] | > 500 | > 500 | 0.1 to 0.5 | – | – |
| CO[C@@H]1C[C@@H]2[C@H](CC[C@]3(C)[C@@H](C(=O)Cn4ccnn4)CC[C@@H]23)[C@H]2CC[C@@](C)(O)C[C@H]21 [SL-1] | – | 10 to 100 | > 0.5 | – | – |
| CCOC[C@@]1(O)CC[C@H]2[C@H](CC[C@@H]3[C@@H]2CC[C@]2(C)[C@@H](C(=O)Cn4nnc(C)n4)CC[C@@H]32)C1 [SO-2] | – | – | > 0.5 | – | – |
| C[C@@]1(O)CC[C@H]2[C@H](CC[C@@H]3[C@@H]2CC[C@]2(C)[C@@H](C(=O)Cn4cncn4)CC[C@@H]32)C1 [SA-1] | – | 100 to 500 | 0.1 to 0.5 | – | – |
| COC[C@@]1(O)CC[C@H]2[C@H](CC[C@@H]3[C@@H]2CC[C@]2(C)[C@@H](C(=O)Cn4ccnn4)CC[C@@H]32)C1 [SM-5] | – | > 500 | 0.1 to 0.5 | – | – |

| Compound | Emax at 10 µM [1] [%] | Emax at 10 µM [2] [%] | IC50 [3] [µM] | Emax at 10 µM ([1]; in cremophor) [%] | Emax at 10 µM ([2]; in cremophor) [%] |
| --- | --- | --- | --- | --- | --- |
| C[C@]12CC[C@H]3[C@@H](CC[C@@H]4C[C@@](O)(C(F)F)CC[C@@H]43)[C@@H]1CC[C@@H]2C(=O)Cn1cnnn1 [SG-1] | 100 to 500 | 100 to 500 | – | – | – |
| C[C@]12CC[C@H]3[C@@H](CC[C@H]4C[C@@](O)(CF)CC[C@@H]43)[C@@H]1CC[C@@H]2C(=O)Cn1ccnn1 [SD-1] | – | – | > 0.5 | – | – |
| C[C@]12CC[C@H]3[C@@H](CC[C@@H]4C[C@@](O)(CF)CC[C@@H]43)[C@@H]1CC[C@@H]2C(=O)Cn1ccnn1 [SF-4] | – | 100 to 500 | 0.1 to 0.5 | – | – |
| CC[C@@]1(O)CC[C@H]2[C@@H](CC[C@@H]3[C@@H]2CC[C@]2(C)[C@@H](C(=O)Cn4nccn4)CC[C@@H]32)C1 [SP-2] | – | 100 to 500 | 0.1 to 0.5 | – | – |
| Cc1nnnn1CC(=O)[C@H]1CC[C@H]2[C@@H]3CC[C@H]4C[C@](C)(O)CC[C@@H]4[C@H]3CC[C@]12C [SB-4] | > 500 | 100 to 500 | – | – | – |
| CO[C@H]1C[C@H]2[C@@H](CC[C@@H]3[C@@H]2CC[C@]2(C)[C@@H](C(=O)Cn4ccnn4)CC[C@@H]32)C[C@]1(C)O [SU-1] | – | 100 to 500 | 0.1 to 0.5 | – | – |
| CO[C@@H]1C[C@@H]2[C@H](CC[C@]3(C)[C@@H](C(=O)Cn4ccnn4)CC[C@@H]23)[C@H]2CC[C@@](C)(O)C[C@@H]21 [SW-1] | – | 100 to 500 | > 0.5 | – | – |
| COC[C@@]1(O)CC[C@H]2[C@H](CC[C@@H]3[C@@H]2CC[C@]2(C)[C@@H](C(=O)Cn4cnnn4)CC[C@@H]32)C1 [SM-1] | – | 100 to 500 | 0.1 to 0.5 | – | – |
| CO[C@@H]1C[C@@H]2[C@H](CC[C@]3(C)[C@@H](C(=O)Cn4nccn4)CC[C@@H]23)[C@H]2CC[C@@](C)(O)C[C@@H]21 [SW-2] | – | – | > 0.5 | – | – |
| C[C@]12CC[C@H]3[C@@H](CC[C@@H]4C[C@@](O)(CF)CC[C@@H]43)[C@@H]1CC[C@@H]2C(=O)Cn1cnnn1 [SF-1] | – | 100 to 500 | 0.1 to 0.5 | – | – |
| C[C@@]1(O)CC[C@@H]2[C@H]3CC[C@]4(C)[C@@H](C(=O)Cn5nccn5)CC[C@H]4[C@@H]3C[C@@H](F)[C@@H]2C1 [SH-2] | – | 100 to 500 | > 0.5 | – | – |
| CC[C@@]1(O)CC[C@H]2[C@H](CC[C@@H]3[C@@H]2CC[C@]2(C)[C@@H](C(=O)Cn4nnnc4C)CC[C@@H]32)C1 [SE-5] | – | – | > 0.5 | – | – |
| CO[C@H]1C[C@H]2[C@@H](CC[C@@H]3[C@@H]2CC[C@]2(C)[C@@H](C(=O)Cn4nccn4)CC[C@@H]32)C[C@]1(C)O [SU-2] | > 500 | 100 to 500 | 0.05 to 0.1 | – | – |
| C[C@@]1(O)CC[C@H]2[C@@H](CC[C@@H]3[C@@H]2CC[C@]2(C)[C@@H](C(=O)Cn4cncn4)CC[C@@H]32)C1 [SB-1] | > 500 | – | 0.1 to 0.5 | – | – |
| C[C@@H]1C[C@H]2[C@@H](CC[C@@H]3[C@@H]2CC[C@]2(C)[C@@H](C(=O)Cn4ccnn4)CC[C@@H]32)C[C@]1(C)O [SN-1] | – | 100 to 500 | 0.05 to 0.1 | – | – |
| C[C@@H]1C[C@H]2[C@@H](CC[C@@H]3[C@@H]2CC[C@]2(C)[C@@H](C(=O)Cn4nccn4)CC[C@@H]32)C[C@]1(C)O [SN-2] | 100 to 500 | 100 to 500 | 0.001 to 0.05 | – | – |
| C[C@]12CC[C@H]3[C@@H](CC[C@H]4C[C@@](O)(C(F)F)CC[C@@H]43)[C@@H]1CC[C@@H]2C(=O)Cn1ccnn1 [SS-1] | – | – | 0.1 to 0.5 | – | – |
| CC[C@@]1(O)CC[C@H]2[C@@H](CC[C@@H]3[C@@H]2CC[C@]2(C)[C@@H](C(=O)Cn4ccnn4)CC[C@@H]32)C1 [SP-1] | – | – | > 0.5 | – | – |
| Cc1cnnn1CC(=O)[C@H]1CC[C@H]2[C@@H]3CC[C@@H]4C[C@](C)(O)CC[C@@H]4[C@H]3CC[C@]12C [SA-4] | > 500 | > 500 | – | – | – |
